According to publication PMC10082216 (Nature Communications, 2023):
Several values for one entry are separate records, joined by “and”; a condition that tells them apart may be missing. Identical values can stand only once. Like-named read-outs stand apart in the source and are kept apart here.

Experiment: TD-6450 phase I clinical study (SAD/MAD): pharmacokinetics
Format: in vivo, human
Settings: for Cmax: read-out: Cmax Mean ± SD; for half-life: read-out: t1/2 Mean ± SD (converted)
Description: Primary and secondary outcomes were pre-defined as follows: Safety and tolerability as a primary outcome, pharmacokinetics as a secondary outcome. Safety and tolerability were evaluated using standard measures, including adverse event (AE) monitoring, clinical laboratory tests (hematology, serum chemistry, coagulation, and urinalysis), vital signs, physical examinations, and 12-lead electrocardiograms (ECGs). […]
This study was conducted in two parts, Part A (SAD) and Part B (MAD). For the Part A, the age of enrolled subjects ranged from 20 to 60 years, with a mean age range of 32.1 to 46.2 years. Most subjects were male (73 total subjects) and most were white (55 subjects) or black (22 subjects). For Part B of the study, ages ranged from 23 to 60 years with a similar mean age across treatment groups. Most subjects were male (25 total subjects) and all were either white (18 subjects) or black (12 subjects). For each part of the study, the mean body mass index (BMI) and creatinine clearance were similar across treatment groups. […] Part A: Healthy subjects were sequentially enrolled and randomly assigned to each dose cohort (up to 10 dose-ascending cohorts were planned, including a fed arm in the food effect cohort) to receive either a single dose of TD-6450 or placebo. For each dose cohort, 8 subjects were randomized in a 3:1 ratio (6 subjects received TD-6450 and 2 subjects received placebo). The starting dose of TD-6450 was 0.5 mg with a planned maximum dose of 1000 mg. Upon review of the 500-mg cohort PK data, the decision was made to not escalate to the 1000-mg cohort because of exposure saturation at ≥ 500 mg. The following doses were administered: 0.5 mg, 1.5 mg, 5 mg, 15 mg, 30 mg, 60 mg, 120 mg, 240 mg, and 500 mg. Part B: Healthy subjects were sequentially enrolled in 3 ascending dose cohorts (TD-6450 60 mg, 120 mg, and 240 mg) and randomly assigned to receive either TD-6450 or placebo as once daily doses for 14 days. For each dose cohort, 10 subjects were randomized in a 4:1 ratio (8 subjects received TD-6450 and 2 subjects received placebo). Blinded safety, tolerability, and available PK data after each dose cohort were reviewed by the Safety Data Review Committee (SDRC) before escalation to the next dosing cohort for both part A and B. Subjects of the clinical study were randomly assigned to each cohort. Randomizations codes were assigned to the subjects. All study subjects, study investigators, and the sponsor’s staff involved in the conduct of the study were blinded to treatment assignment. The only personnel who had access to the randomization code before database lock were: The pharmacist or pharmacy staff member who prepared drug or placebo capsules for administration to the subject according to the randomization code and the bioanalytical contract laboratory that analyzed the PK samples (plasma and urine).

[1] = Male subjects, SAD arm NCT02022306, Dose 30.00, 3 Hours
[2] = Male subjects, SAD arm NCT02022306, Dose 30.00, 4 Hours
[3] = Male subjects, SAD arm NCT02022306, Dose 30.00, 72 Hours
[4] = Male subjects, SAD arm NCT02022306, Dose 30.00, 96 Hours
[5] = Male subjects, SAD arm NCT02022306, Dose 30.00, 120 Hours
[6] = Male subjects, SAD arm NCT02022306, Dose 30.00, 144 Hours
[7] = Male subjects, SAD arm NCT02022306, Dose 30.00, 168 Hours
[8] = Male subjects, SAD arm NCT02022306, Dose 30.00, Predose
[9] = both sexes, human, plasma, oral, 1.5 mg, SAD 1.5 mg
[10] = both sexes, human, plasma, oral, 5 mg, SAD 5 mg
[11] = both sexes, human, plasma, oral, 15 mg, SAD 15 mg
[12] = both sexes, human, plasma, oral, 30 mg, SAD 30 mg

In the case of CNC(=O)N1C[C@@H](C)N(c2ccc(C(=O)Nc3ccc(-c4ccc(-c5c[nH]c([C@@H]6CCCN6C(=O)[C@@H](NC(=O)OC)C(C)C)n5)cc4)c(OC(F)(F)F)c3)cn2)C[C@@H]1C [TD-6450], the Concentration (Female subjects, SAD arm NCT02022306, Dose 0.50, Predose) is reported as 0.00 ng/mL, the Concentration (Female subjects, SAD arm NCT02022306, Dose 5.00, Predose) is reported as 0.00 ng/mL and the Concentration (Female subjects, SAD arm NCT02022306, Dose 15.00, Predose) is reported as 0.00 ng/mL. The Concentration (Female subjects, SAD arm NCT02022306, Dose 30.00, 3 Hours) was 41.80 ng/mL, the Concentration (Female subjects, SAD arm NCT02022306, Dose 30.00, 4 Hours) was 44.70 ng/mL and the Concentration (Female subjects, SAD arm NCT02022306, Dose 30.00, 6 Hours) was 43.90 ng/mL. It also gave a Concentration (Female subjects, SAD arm NCT02022306, Dose 30.00, 8 Hours) of 35.40 ng/mL, a Concentration (Female subjects, SAD arm NCT02022306, Dose 30.00, 12 Hours) of 27.90 ng/mL and a Concentration (Female subjects, SAD arm NCT02022306, Dose 30.00, 24 Hours) of 20.20 ng/mL. For the same molecule, the Concentration (Female subjects, SAD arm NCT02022306, Dose 30.00, 48 Hours) was 17.50 ng/mL, the Concentration (Female subjects, SAD arm NCT02022306, Dose 30.00, 72 Hours) was 12.70 ng/mL and the Concentration (Female subjects, SAD arm NCT02022306, Dose 30.00, 96 Hours) was 9.33 ng/mL. For the same molecule, the Concentration (Female subjects, SAD arm NCT02022306, Dose 30.00, 120 Hours) was 7.89 ng/mL, the Concentration (Female subjects, SAD arm NCT02022306, Dose 30.00, 144 Hours) was 6.17 ng/mL and the Concentration (Female subjects, SAD arm NCT02022306, Dose 30.00, 168 Hours) was 4.12 ng/mL. The Concentration (Female subjects, SAD arm NCT02022306, Dose 30.00, Predose) was 0.00 ng/mL, the Concentration (Female subjects, SAD arm NCT02022306, Dose 60.00, Predose) was 0.00 ng/mL and the Concentration (Male subjects, SAD arm NCT02022306, Dose 0.50, Predose) was 0.00 ng/mL. It also gave a Concentration (Male subjects, SAD arm NCT02022306, Dose 1.50, Predose) of 0.00 ng/mL, a Concentration (Male subjects, SAD arm NCT02022306, Dose 5.00, Predose) of 0.00 ng/mL and a Concentration (Male subjects, SAD arm NCT02022306, Dose 15.00, Predose) of 0.00 ng/mL. The Concentration [1] was 16.10 ng/mL, the “Concentration (ng/ml)” value [1] was 14.80 ng/mL and the Concentration [2] was 17.80 ng/mL. The “Concentration (ng/ml)” value [2] was 18.90 ng/mL, the Concentration (Male subjects, SAD arm NCT02022306, Dose 30.00, 6 Hours) was 21.60 ng/mL and the Concentration (Male subjects, SAD arm NCT02022306, Dose 30.00, 8 Hours) was 20.90 ng/mL. It also gave a Concentration (Male subjects, SAD arm NCT02022306, Dose 30.00, 12 Hours) of 16.40 ng/mL, a Concentration (Male subjects, SAD arm NCT02022306, Dose 30.00, 24 Hours) of 12.70 ng/mL and a Concentration (Male subjects, SAD arm NCT02022306, Dose 30.00, 48 Hours) of 9.02 ng/mL. The Concentration [3] was 7.45 ng/mL, the “Concentration (ng/ml)” value [3] was 9.39 ng/mL and the Concentration [4] was 6.04 ng/mL. For the same molecule, the “Concentration (ng/ml)” value [4] was 7.13 ng/mL, the Concentration [5] was 4.98 ng/mL and the “Concentration (ng/ml)” value [5] was 5.80 ng/mL. For the same molecule, the Concentration [6] was 3.71 ng/mL, the “Concentration (ng/ml)” value [6] was 4.24 ng/mL and the Concentration [7] was 3.30 ng/mL. For the same molecule, the “Concentration (ng/ml)” value [7] was 3.28 ng/mL, the Concentration [8] was 0.00 ng/mL and the “Concentration (ng/ml)” value [8] was 0.00 ng/mL. The “Concentration (ng/ml)” value (Male subjects, SAD arm NCT02022306, Dose 60.00, 8 Hours) was 61.90 ng/mL and 92.80 ng/mL and 97.50 ng/mL and 65.40 ng/mL, the “Concentration (ng/ml)” value (Male subjects, SAD arm NCT02022306, Dose 60.00, Predose) was 0.00 ng/mL and the “Concentration (ng/ml)” value (Male subjects, SAD arm NCT02022306, Dose 120.00, Predose) was 0.00 ng/mL. For the same molecule, the “Concentration (ng/ml)” value (Male subjects, SAD arm NCT02022306, Dose 240.00, Predose) was 0.00 ng/mL, the “Concentration (ng/ml)” value (Male subjects, SAD arm NCT02022306, Dose 500.00, 30 Minutes) was 2.54 ng/mL and 3.61 ng/mL and 2.21 ng/mL and the “Concentration (ng/ml)” value (Male subjects, SAD arm NCT02022306, Dose 500.00, Predose) was 0.00 ng/mL. It also gave a Cmax (both sexes, human, plasma, oral, 0.5 mg, SAD 0.5 mg) of 0.5 ± 0.1 nM, a Cmax [9] of 1.5 ± 0.4 nM and a half-life [9] of 84.3 h. The Cmax [10] was 5.37 ± 1.8 nM, the half-life [10] was 71.7 ± 5.2 h and the Cmax [11] was 21 ± 7.9 nM. It also gave a half-life [11] of 77 ± 14.2 h, a Cmax [12] of 37.4 ± 19 nM and a half-life [12] of 66.9 ± 9 h. The Cmax at 1 day (both sexes, human, plasma, oral, 60 mg, MAD 60 mg, day 1, read-out: Cmax Mean ± SD, D1) was 97.4 nM, the Cmax at 14 day (both sexes, human, plasma, oral, 60 mg, MAD 60 mg, day 14, read-out: Cmax Mean ± SD, D14) was 398 ± 146 nM and the half-life at 14 day (both sexes, human, plasma, oral, 60 mg, MAD 60 mg, day 14, read-out: t1/2 Mean ± SD, D14 (converted)) was 62.3 ± 10 h.
